Reference: US4746672A, “Oxides of 1,2,5-thiadiazoles, their use in pharmaceutical compositions” (ICI Americas Inc., priority 1982, dated 1988)
Structures can show the parent of a compound that is named as a salt.

Biological target: T1, histamine H-2 receptor (Oryctolagus cuniculus, UniProt G1TWL8)
T1 construct: The mixture of glands and cells is collected by centrifugation; from tissue; host or cells: dispersed gastric glands and cells (parietal cells) from gastric mucosa of New Zealand white rabbit
T1 sequence (G1TWL8 1-367): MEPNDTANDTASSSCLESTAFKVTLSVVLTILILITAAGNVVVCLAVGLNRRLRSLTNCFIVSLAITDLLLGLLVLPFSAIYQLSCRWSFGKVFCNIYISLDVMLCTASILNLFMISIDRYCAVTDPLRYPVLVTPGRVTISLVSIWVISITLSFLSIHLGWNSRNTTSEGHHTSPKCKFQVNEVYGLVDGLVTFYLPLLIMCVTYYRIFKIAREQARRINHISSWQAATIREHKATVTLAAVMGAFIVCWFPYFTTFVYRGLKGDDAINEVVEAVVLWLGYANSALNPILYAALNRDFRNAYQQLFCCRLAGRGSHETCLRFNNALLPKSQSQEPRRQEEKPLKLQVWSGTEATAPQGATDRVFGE
Test: aminopyrine test: inhibition of histamine-induced uptake of aminopyrine into the acid space of parietal cells
Format: cell-based, New Zealand white rabbit
Conditions: rabbit gastric mucosa glands/cells; uptake stimulated by histamine 10^-5 M and ICI 63197 5×10^-7 M; read-out: concentration giving 50% inhibition of uptake of aminopyrine
Procedure: The aminopyrine test is carried out as follows:
Gastric mucosa from the New Zealand white rabbit is removed from the underlying muscle and washed in Buffer 1 which contains per liter: NaCl (8.007 g.), KCl (0.201 g.), Na2 HPO4 (0.113 g.), KH2 PO4 (0.204 g.), CaCl2.2H2 O (0.132 g.) MgCl2 (0.101 g.) and glucose (1 g.), adjusted to pH 7.4 with NaOH. The tissue is finely chopped, suspended in Buffer 1 and washed three times with Buffer 1. The tissue is then suspended in a dispersion medium of collagenase (Sigma Chemical Co., Type V; 100 mg.) and bovine serum albumin (Miles Laboratories Ltd., Fraction V; 100 mg.) in Buffer 1 (100 ml.) at 50 ml. per 10 g. net weight of tissue and incubated at 30° C. and pH 7.4 maintained by continuous monitoring, with stirring under an oxygen atmosphere. After 30 minutes the tissue is allowed to settle and the supernatant liquid is removed. Fresh dispersion medium (50 ml. per 10 g. wet weight of tissue) is added and incubation is continued with the tissue being largely dispersed into glands and whole cells after 40-60 minutes. Any remaining large pieces of tissue are removed by filtration through nylon mesh. […] The C^14 aminopyrine retained by the tissue is measured on a scintillation counter and the degree of inhibition of uptake by the test compound is calculated by reference to a control sample. […]

IC50: < 3 µM
Structure (SMILES): NC(=NCC(F)(F)F)Nc1nc(CSCCNc2n[s+]([O-])nc2N)cs1 (stereo not shown) [Example 1, 3-amino-4-[2-(2-[2,2,2-trifluoroethyl]guanidino)thiazol-4-ylmethylthio]ethylamino-1,2,5-thiadiazole 1-oxide maleate]
